biological target: T1, human AR (Homo sapiens, UniProt P10275); assay: IR Binding Assay: whole cell competitive binding of test compounds against 3H-DHT in COS-1 cells transfected with pRShAR; conditions: not given
T1 construct: expressed in transfected cells; host or cells: COS-1 cells
T1 sequence (P10275 1-920): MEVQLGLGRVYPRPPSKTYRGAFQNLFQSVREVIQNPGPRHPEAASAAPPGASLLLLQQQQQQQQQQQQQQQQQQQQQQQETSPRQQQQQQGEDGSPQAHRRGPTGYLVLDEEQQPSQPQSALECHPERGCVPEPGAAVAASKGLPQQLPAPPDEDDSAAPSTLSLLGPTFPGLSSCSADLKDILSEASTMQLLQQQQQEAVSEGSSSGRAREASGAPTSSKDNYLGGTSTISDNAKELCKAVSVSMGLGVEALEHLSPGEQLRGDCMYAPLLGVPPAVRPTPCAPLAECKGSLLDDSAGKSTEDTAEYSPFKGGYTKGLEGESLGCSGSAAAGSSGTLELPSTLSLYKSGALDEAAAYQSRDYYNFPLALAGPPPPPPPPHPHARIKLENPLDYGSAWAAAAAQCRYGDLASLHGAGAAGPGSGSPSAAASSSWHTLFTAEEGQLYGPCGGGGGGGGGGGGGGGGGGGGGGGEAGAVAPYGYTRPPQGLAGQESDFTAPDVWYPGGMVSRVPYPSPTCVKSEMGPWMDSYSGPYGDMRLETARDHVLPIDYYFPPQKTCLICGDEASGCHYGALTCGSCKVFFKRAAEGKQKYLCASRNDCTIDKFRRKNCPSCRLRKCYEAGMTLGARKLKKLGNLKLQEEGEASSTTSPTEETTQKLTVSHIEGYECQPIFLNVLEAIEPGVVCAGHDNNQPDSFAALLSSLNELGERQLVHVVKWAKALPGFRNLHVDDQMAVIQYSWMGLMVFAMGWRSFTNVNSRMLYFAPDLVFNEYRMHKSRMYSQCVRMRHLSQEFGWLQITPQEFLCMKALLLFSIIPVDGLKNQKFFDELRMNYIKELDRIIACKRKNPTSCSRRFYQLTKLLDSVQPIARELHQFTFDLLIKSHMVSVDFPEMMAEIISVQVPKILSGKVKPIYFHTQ
Summary of the method: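 COS-1 cells transfected with pRShAR plus β-Gal reporter, serum-starved 24 h, then exposed to 1 nM ³H-DHT with compounds at 10^−10 to 10^−6 M for 3 h at 37 °C. Bound ³H-DHT counted in lysates, normalized to β-Gal. IC50 from log-logit plot; Ki via Cheng-Prusoff using Kd from Scatchard saturation analysis.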

First: Cc1c(C)n(CC(O)C(F)(F)F)c2ccc3[nH]c(=O)cc(C(F)(F)F)c3c12 (racemic) [Compound 243, (±)-1,2-Dimethyl-3-(3,3,3-trifluoro-2-hydroxy-propyl)-9-trifluoromethyl-3,6-dihydro-pyrrolo[3,2-f]-quinolin-7-one]
Second: Cc1c(C)n(C[C@@H](O)C(F)(F)F)c2ccc3[nH]c(=O)cc(C(F)(F)F)c3c12 [Compound 244, (+)-1,2-Dimethyl-3-(3,3,3-trifluoro-2-hydroxy-propyl)-9-trifluoromethyl-3,6-dihydro-pyrrolo[3,2-f]-quinolin-7-one]
The Ki of the first is lower: less than 5 nM for the first, greater than 10 nM for the second.

`CCC1C(C)c2c(ccc3[nH]c(=O)cc(Cl)c23)N1CC(F)(F)C(F)(F)F` (racemic) [Compound 177, (±)-9-Chloro-2-ethyl-1-methyl-3-(2,2,3,3,3-pentafluoropropyl)-1,2,3,6-tetrahydro-pyrrolo[3,2-f]quinolin-7-one] and `CCC1C(C)c2c(ccc3[nH]c(=O)cc(Cl)c23)N1CC(F)(F)Cl` (racemic) [Compound 176, (±)-9-Chloro-3-(2-Chloro-2,2-difluoroethyl)-2-ethyl-1-methyl-1,2,3,6-tetrahydro-pyrrolo[3,2-f]quinolin-7-one] cannot be ordered by Ki: less than 5 nM for the first, less than 5 nM for the second.

First: Cc1[nH]c2ccc3[nH]c(=O)cc(Cl)c3c2c1C [Compound 105, 9-Chloro-1,2-dimethyl-3,6-dihydro-pyrrolo[3,2-f]quinolin-7-one]
Second: CCc1[nH]c2ccc3[nH]c(=O)cc(Cl)c3c2c1C [Compound 106, 9-Chloro-2-ethyl-1-methyl-3,6-dihydro-pyrrolo[3,2-f]quinolin-7-one]
The Ki of the first is lower: less than 5 nM for the first, 5 to 10 nM for the second. The first binds more tightly here.

`CCC1C(C)c2c(ccc3[nH]c(=O)cc(Cl)c23)N1CCC(F)(F)F` (racemic) [Compound 170, (±)-9-Chloro-2-ethyl-1-methyl-3-(3,3,3-trifluoropropyl)-1,2,3,6-tetrahydro-pyrrolo[3,2-f]quinolin-7-one] and `CC1c2c(ccc3[nH]c(=O)cc(C(F)(F)F)c23)N(CCC(F)(F)F)C1C` (racemic) [Compound 174, (±)-1,2-Dimethyl-9-trifluoromethyl-3-(3,3,3-trifluoropropyl)-1,2,3,6-tetrahydro-pyrrolo[3,2-f]quinolin-7-one] cannot be ordered by Ki: less than 5 nM for the first, less than 5 nM for the second.

`Cc1c(-c2cccs2)n(C[C@H](O)C(F)(F)F)c2ccc3[nH]c(=O)cc(Cl)c3c12` [Compound 272, (S)-9-Chloro-1-methyl-2-thiophen-2-yl-3-(3,3,3-trifluoro-2-hydroxy-propyl)-3,6-dihydro-pyrrolo[3,2-f]quinolin-7-one] and `Cc1c(C)n(CC(O)C(F)(F)F)c2ccc3[nH]c(=O)cc(Cl)c3c12` (racemic) [Compound 231, (±)-9-Chloro-1,2-dimethyl-3-(3,3,3-trifluoro-2-hydroxy-propyl)-3,6-dihydro-pyrrolo[3,2-f]-quinolin-7-one] cannot be ordered by Ki: less than 5 nM for the first, less than 5 nM for the second.

First: Cc1c(C)n(CCCBr)c2ccc3[nH]c(=O)cc(C(F)(F)F)c3c12 [Compound 288, 3-(3-Bromopropyl)-1,2-dimethyl-9-trifluoromethyl-3,6-dihydro-pyrrolo[3,2-f]-quinolin-7-one]
Second: Cc1c(C)n(CCO)c2ccc3[nH]c(=O)cc(C(F)(F)F)c3c12 [Compound 240, 1,2-Dimethyl-3-(2-hydroxyethyl)-9-trifluoromethyl-3,6-dihydro-pyrrolo[3,2-f]quinolin-7-one]
The Ki of the first is lower: less than 5 nM for the first, greater than 10 nM for the second. The first binds more tightly here.

`CC1CN(CC(F)(F)F)c2ccc3[nH]c(=O)cc(Cl)c3c21` (racemic) [Compound 132, (±)-9-Chloro-1-methyl-3-(2,2,2-trifluoro-ethyl)-1,2,3,6-tetrahydro-pyrrolo[3,2-f]quinolin-7-one] and `Cc1c(C)n(CC(F)(F)F)c2ccc3[nH]c(=O)cc(Cl)c3c12` [Compound 184, 9-Chloro-1,2-dimethyl-3-(2,2,2-trifluoroethyl)-3,6-dihydro-pyrrolo[3,2-f]quinolin-7-one] cannot be ordered by Ki: less than 5 nM for the first, less than 5 nM for the second.

Going from `Cc1c(C)n(CC(O)CO)c2ccc3[nH]c(=O)cc(C(F)(F)F)c3c12` (stereo not shown) [Compound 293, 3-(2,3-dihydroxypropyl)-1,2-dimethyl-9-trifluoromethyl-3,6-dihydro-pyrrolo[3,2-f]-quinolin-7-one] to `Cc1c(C)n(CCC(F)(F)F)c2ccc3[nH]c(=O)cc(C(F)(F)F)c3c12` [Compound 221, 1,2-Dimethyl-9-trifluoromethyl-3-(3,3,3-trifluoropropyl)-3,6-dihydro-pyrrolo[3,2-f]-quinolin-7-one], the Ki falls from greater than 10 nM to less than 5 nM.

`Cc1c(-c2ccncc2)n(CC(F)(F)C(F)(F)F)c2ccc3[nH]c(=O)cc(Cl)c3c12` [Compound 263, 9-Chloro-1-methyl-3-(2,2,3,3,3-pentafluoropropyl)-2-(4-pyridyl)-3,6-dihydro-pyrrolo[3,2-f]quinolin-7-one] and `Cc1c(-c2ncco2)n(CC(F)(F)C(F)(F)F)c2ccc3[nH]c(=O)cc(Cl)c3c12` [Compound 266, 9-Chloro-1-methyl-2-(oxazol-2-yl)-3-(2,2,3,3,3-pentafluoropropyl)-3,6-dihydro-pyrrolo[3,2-f]quinolin-7-one] cannot be ordered by Ki: less than 5 nM for the first, less than 5 nM for the second.

First: Cc1cc2c3c(Cl)cc(=O)[nH]c3ccc2n1CC(F)(F)F [Compound 186, 9-Chloro-2-methyl-3-(2,2,2-trifluoroethyl)-3,6-dihydro-pyrrolo[3,2-f]quinolin-7-one]
Second: Cc1c(-c2cccnc2)n(CC(F)(F)F)c2ccc3[nH]c(=O)cc(Cl)c3c12 [Compound 253, 9-Chloro-1-methyl-2-(3-pyridyl)-3-(2,2,2-trifluoroethyl)-3,6-dihydro-pyrrolo[3,2-f]-quinolin-7-one]
The Ki of the first is lower: 5 to 10 nM for the first, greater than 10 nM for the second.

`Cc1c(C)n(CC(F)(F)Cl)c2ccc3[nH]c(=O)cc(Cl)c3c12` [Compound 212, 9-Chloro-3-(2-chloro-2,2-difluoroethyl)-1,2-dimethyl-3,6-dihydro-pyrrolo[3,2-f]quinolin-7-one] and `CCc1c(C)c2c3c(Cl)cc(=O)[nH]c3ccc2n1CC(O)C(F)(F)F` (racemic) [Compound 232, (±)-9-Chloro-2-ethyl-1-methyl-3-(3,3,3-trifluoro-2-hydroxy-propyl)-3,6-dihydro-pyrrolo[3,2-f]quinolin-7-one] cannot be ordered by Ki: less than 5 nM for the first, less than 5 nM for the second.

`Cc1c(-c2ccccc2F)n(CC(F)(F)F)c2ccc3[nH]c(=O)cc(Cl)c3c12` [Compound 199, 9-Chloro-2-(2-fluorophenyl)-1-methyl-3-(2,2,2-trifluoroethyl)-3,6-dihydro-pyrrolo[3,2-f]quinolin-7-one] and `Cc1c(-c2ccc(F)cc2F)n(CC(F)(F)F)c2ccc3[nH]c(=O)cc(Cl)c3c12` [Compound 200, 9-Chloro-2-(2,4-difluorophenyl)-1-methyl-3-(2,2,2-trifluoroethyl)-3,6-dihydro-pyrrolo[3,2-f]-quinolin-7-one] cannot be ordered by Ki: less than 5 nM for the first, less than 5 nM for the second.

Going from `Cc1c(C)n(CCc2cccs2)c2ccc3[nH]c(=O)cc(Cl)c3c12` [Compound 189, 9-Chloro-1,2-dimethyl-3-(2-thien-2-yl-ethyl)-3,6-dihydro-pyrrolo[3,2-f]quinolin-7-one] to `Cc1c(-c2ccccc2)n(CC(F)(F)F)c2ccc3[nH]c(=O)cc(Cl)c3c12` [Compound 187, 9-Chloro-1-methyl-2-phenyl-3-(2,2,2-trifluoroethyl)-3,6-dihydro-pyrrolo[3,2-f]quinolin-7-one], the Ki falls from greater than 10 nM to less than 5 nM. The second binds more tightly here.

First: Cc1c(-c2ccc(F)cc2)n(CC(F)(F)F)c2ccc3[nH]c(=O)cc(Cl)c3c12 [Compound 194, 9-Chloro-2-(4-fluorophenyl)-1-methyl-3-(2,2,2-trifluoroethyl)-3,6-dihydro-pyrrolo[3,2-f]quinolin-7-one]
Second: Cc1c(CO)n(CC(F)(F)F)c2ccc3[nH]c(=O)cc(C(F)(F)F)c3c12 [Compound 235, 2-Hydroxymethyl-1-methyl-3-(2,2,2-trifluoro-ethyl)-9-trifluoromethyl-3,6-dihydro-pyrrolo[3,2-f]-quinolin-7-one]
The Ki of the first is lower: less than 5 nM for the first, greater than 10 nM for the second. The first binds more tightly here.

First: CC1c2c(ccc3[nH]c(=O)cc(Cl)c23)N(CC(F)F)C1C (racemic) [Compound 143, (±)-9-Chloro-3-(2,2-difluoroethyl)-1,2-dimethyl-1,2,3,6-tetrahydro-pyrrolo[3,2-f]quinolin-7-one]
Second: CC1c2c(ccc3[nH]c(=O)cc(Cl)c23)N(C)C1C (racemic) [Compound 136, (±)-9-Chloro-1,2,3-trimethyl-1,2,3,6-tetrahydro-pyrrolo[3,2-f]quinolin-7-one]
The Ki of the first is lower: 5 to 10 nM for the first, greater than 10 nM for the second.

same assay, conditions: competition with 1 nM 3H-DHT, transfected COS-1 cells, 3 h at 37° C., Cheng-Prusoff from IC50; read-out: Ki

`Cc1c(-c2ccncc2)n(CC(F)(F)F)c2ccc3[nH]c(=O)cc(Cl)c3c12` [Compound 254, 9-Chloro-1-methyl-2-(4-pyridyl)-3-(2,2,2-trifluoroethyl)-3,6-dihydro-pyrrolo[3,2-f]-quinolin-7-one] was tested, and the Ki was greater than 10 nM.

— patent US8580811B2 (Ligand Pharmaceuticals Incorporated, priority 2005, dated 2013)
